Patent US20230190705A1, “DRUG COMBINATION FOR TREATING DIABETES MELLITUS AND COMPLICATIONS THEREOF AND PHARMACEUTICAL COMPOSITION OF DRUG COMBINATION” (Chengdu Chipscreen Pharmaceutical Ltd., priority 2020, published 2023)

Columns and labels:
diabetic patients = details: clinical studies; cited from earlier work
db/db male mice [1] = assay: Blood lipids (serum TC and TG), chiglitazar sodium with dapagliflozin (Example 4); assay type: in vivo; details: oral once a day for 14 days, serum on Day 15, 10 mg/kg chiglitazar sodium, 1.5 mg/kg dapagliflozin or both, FIG. 4
Protocol: Experimental design: the effects on total cholesterol (TC) and triglyceride (TG) in mouse serum of single and combined medication were investigated, by oral administration of chiglitazar sodium, dapagliflozin, or a combination thereof to diabetic mice.
Wild-type C57BLKS/Jnju mice were used as normal control (administered with vehicle). The period of administration was 14 days, and the animals were treated and dissected on Day 15. Whole blood was collected, serum was centrifuged and serum TC and TG were measured by biochemical analyzer.

db/db male mice [2] = assay: Body weight and fasting blood glucose, chiglitazar sodium with empagliflozin (Example 1); assay type: in vivo; details: oral once a day for 14 days, 10 mg/kg chiglitazar sodium, 3 mg/kg empagliflozin or both, FIG. 1; for fasting blood glucose: 4-6 hours of fasting
Protocol: Experimental design: the effects on body weight and blood glucose of single and combined medication were investigated, by oral administration of chiglitazar sodium, empagliflozin, or a combination thereof to mice.
(§1) Experimental procedure: 6-Week-old db/db male mice were orally administered once a day with 100 µL of vehicle (0.1% sodium carboxymethylcellulose), 10 mg/kg chiglitazar sodium, 3 mg/kg empagliflozin, or a combination of chiglitazar sodium and empagliflozin at the same doses simultaneously, respectively, according to body weight. Wild-type C57BLKS/Jnju mice were used as normal control (administered with the vehicle). The period of administration was 14 days, and the animals were treated and dissected on Day 15. Starting from the administration, the mice were subjected to weighing and measurement of fasting blood glucose (4-6 hours of fasting) every 3 days.

db/db male mice [3] = assay: Blood lipids (serum TC and TG), chiglitazar sodium with empagliflozin (Example 3); assay type: in vivo; details: oral once a day for 14 days, serum on Day 15, 10 mg/kg chiglitazar sodium, 3 mg/kg empagliflozin or both, FIG. 3
Protocol: Experimental design: the effects on total cholesterol (TC) and triglyceride (TG) in mouse serum of single and combined medication were investigated, by oral administration of chiglitazar sodium, empagliflozin, or a combination thereof to diabetic mice.
as §1, with “with” for “with the”, “Whole blood was collected, serum was centrifuged and serum TC and TG” for “Starting from the administration, the mice”, “measured by biochemical analyzer.” for “subjected to weighing and measurement of fasting blood glucose (4-6 hours of fasting) every 3 days.”

db/db male mice [4] = assay: Body weight and fasting blood glucose, chiglitazar sodium with dapagliflozin (Example 2); assay type: in vivo; details: oral once a day for 14 days, 10 mg/kg chiglitazar sodium, 1.5 mg/kg dapagliflozin or both, FIG. 2
Protocol: Experimental design: the effects on body weight and blood glucose of single and combined medication were investigated, by oral administration of chiglitazar sodium, dapagliflozin, or a combination thereof to mice.
Wild-type C57BLKS/Jnju mice were used as normal control (administered with vehicle). The period of administration was 14 days, and the animals were treated and dissected on Day 15. Starting from the administration, the mice were subjected to weighing and measurement of fasting blood glucose (4-6 hours of fasting) every 3 days.

Structure (SMILES)	efficacy on blood glucose and lipids in diabetic patients (diabetic patients)	weight gain effect in diabetic patients (diabetic patients)	serum total cholesterol (TC) (db/db male mice [1])	serum triglyceride (TG) (db/db male mice [1])	fasting blood glucose (db/db male mice [2])	body weight (db/db male mice [2])	serum total cholesterol (TC) (db/db male mice [3])	serum triglyceride (TG) (db/db male mice [3])	fasting blood glucose (db/db male mice [4]; 4-6 hours of fasting)	body weight (db/db male mice [4])
O=C(c1ccc(F)cc1)c1ccccc1NC(Cc1ccc(OCCn2c3ccccc3c3ccccc32)cc1)C(=O)O (stereo not shown) [chiglitazar sodium]	has efficacy in reducing blood glucose and improving lipids in diabetic patients	having certain weight gain effect	could reduce the serum total cholesterol and triglyceride levels to a certain extent	could reduce the serum total cholesterol and triglyceride levels to a certain extent	could reduce blood glucose to a certain extent	weight gain	could reduce the serum total cholesterol and triglyceride levels to a certain extent	could reduce the serum total cholesterol and triglyceride levels to a certain extent	could reduce blood glucose to a certain extent	weight gain
OC[C@H]1O[C@@H](c2ccc(Cl)c(Cc3ccc(O[C@H]4CCOC4)cc3)c2)[C@H](O)[C@@H](O)[C@@H]1O [empagliflozin, reference compound]					could reduce blood glucose to a certain extent		could reduce the serum total cholesterol and triglyceride levels to a certain extent	could reduce the serum total cholesterol and triglyceride levels to a certain extent		
